Measurements from ChEMBL document CHEMBL2034887, “Substituted phenoxypropyl-(R)-2-methylpyrrolidine aminomethyl ketones as histamine-3 receptor inverse agonists” (Bioorg Med Chem Lett, 2012).
One block for each compound: values may come before it.

What was measured:
[1] = target: T1, Histamine H3 receptor (Homo sapiens, UniProt Q9Y5N1); assay: Displacement of [3H]NAMH from human histamine H3 receptor expressed in CHO cells; type: cell-based
[2] = target: Histamine H3 receptor (Rattus norvegicus, UniProt Q9QYN8); assay: Displacement of [3H]NAMH from rat histamine H3 receptor expressed in CHO cells; type: cell-based
Histamine H3 receptor (Rattus norvegicus, UniProt Q9QYN8), sequence (Q9QYN8 whole entry): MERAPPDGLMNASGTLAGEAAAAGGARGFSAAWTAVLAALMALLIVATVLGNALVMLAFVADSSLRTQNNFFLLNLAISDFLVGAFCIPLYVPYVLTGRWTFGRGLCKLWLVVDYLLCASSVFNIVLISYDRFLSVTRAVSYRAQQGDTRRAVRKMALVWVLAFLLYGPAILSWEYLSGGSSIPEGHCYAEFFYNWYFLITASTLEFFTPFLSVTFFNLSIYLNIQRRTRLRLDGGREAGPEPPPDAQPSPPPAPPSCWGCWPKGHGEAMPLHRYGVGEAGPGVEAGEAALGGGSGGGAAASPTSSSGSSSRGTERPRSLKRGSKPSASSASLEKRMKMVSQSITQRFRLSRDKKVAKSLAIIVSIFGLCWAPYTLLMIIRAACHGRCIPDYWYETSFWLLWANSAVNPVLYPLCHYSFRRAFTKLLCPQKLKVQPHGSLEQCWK

[3] = target: Histamine H4 receptor (Homo sapiens) (UniProt Q9H3N8); assay: Inhibition of human histamine H4 receptor at 10 uM
[4] = tested on: Caco-2; assay: Permeability across human Caco2 cells; type: ADME, cell-based
[5] = target: Histamine H2 receptor (Homo sapiens) (UniProt P25021); assay: Inhibition of human histamine H2 receptor at 10 uM
Histamine H2 receptor (Homo sapiens), sequence (P25021 whole entry): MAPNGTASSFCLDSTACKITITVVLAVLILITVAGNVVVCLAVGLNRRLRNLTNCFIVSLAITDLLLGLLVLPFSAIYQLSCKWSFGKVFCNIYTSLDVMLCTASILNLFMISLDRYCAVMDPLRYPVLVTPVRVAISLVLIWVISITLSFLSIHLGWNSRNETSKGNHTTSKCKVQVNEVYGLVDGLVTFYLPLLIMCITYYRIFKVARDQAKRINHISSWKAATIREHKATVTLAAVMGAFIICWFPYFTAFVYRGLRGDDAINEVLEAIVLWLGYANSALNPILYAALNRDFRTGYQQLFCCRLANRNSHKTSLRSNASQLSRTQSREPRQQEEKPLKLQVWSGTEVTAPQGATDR

[6] = target: Histamine H1 receptor (Homo sapiens) (UniProt P35367); assay: Inhibition of human histamine H1 receptor at 10 uM
Histamine H1 receptor (Homo sapiens), sequence (P35367 whole entry): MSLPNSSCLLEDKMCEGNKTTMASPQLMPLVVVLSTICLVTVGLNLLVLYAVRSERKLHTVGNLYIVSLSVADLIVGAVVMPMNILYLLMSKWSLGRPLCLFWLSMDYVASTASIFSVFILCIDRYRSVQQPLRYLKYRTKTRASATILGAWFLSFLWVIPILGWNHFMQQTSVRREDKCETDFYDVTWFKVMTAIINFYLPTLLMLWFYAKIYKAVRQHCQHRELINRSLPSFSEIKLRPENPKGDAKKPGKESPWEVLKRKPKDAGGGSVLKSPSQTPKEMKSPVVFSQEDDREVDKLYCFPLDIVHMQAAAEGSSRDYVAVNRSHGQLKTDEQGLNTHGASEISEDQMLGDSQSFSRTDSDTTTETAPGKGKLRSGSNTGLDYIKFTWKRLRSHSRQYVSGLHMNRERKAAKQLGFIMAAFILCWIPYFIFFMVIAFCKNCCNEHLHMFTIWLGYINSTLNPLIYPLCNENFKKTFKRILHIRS

[7] = target: T2, CYP1A2 (Homo sapiens, UniProt P05177); assay: (§1) Inhibition of CYP1A2; type: ADME
T2 sequence (P05177 whole entry): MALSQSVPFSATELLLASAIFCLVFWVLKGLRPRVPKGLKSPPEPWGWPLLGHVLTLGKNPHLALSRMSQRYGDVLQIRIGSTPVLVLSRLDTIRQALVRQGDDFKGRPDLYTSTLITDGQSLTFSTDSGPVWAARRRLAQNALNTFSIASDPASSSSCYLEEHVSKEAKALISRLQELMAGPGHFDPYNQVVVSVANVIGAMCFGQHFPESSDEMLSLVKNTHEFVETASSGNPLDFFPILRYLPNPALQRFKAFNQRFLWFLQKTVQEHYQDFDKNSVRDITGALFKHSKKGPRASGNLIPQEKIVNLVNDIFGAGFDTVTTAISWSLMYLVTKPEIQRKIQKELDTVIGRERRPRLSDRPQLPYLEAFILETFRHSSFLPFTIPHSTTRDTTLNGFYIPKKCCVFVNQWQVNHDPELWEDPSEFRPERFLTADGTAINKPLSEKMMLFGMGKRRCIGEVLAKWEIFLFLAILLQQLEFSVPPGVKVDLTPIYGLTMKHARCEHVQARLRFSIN

[8] = target: CYP2C9 (Homo sapiens, UniProt P11712); assay: (§2) Inhibition of CYP2C9; type: ADME
CYP2C9, sequence (P11712 whole entry): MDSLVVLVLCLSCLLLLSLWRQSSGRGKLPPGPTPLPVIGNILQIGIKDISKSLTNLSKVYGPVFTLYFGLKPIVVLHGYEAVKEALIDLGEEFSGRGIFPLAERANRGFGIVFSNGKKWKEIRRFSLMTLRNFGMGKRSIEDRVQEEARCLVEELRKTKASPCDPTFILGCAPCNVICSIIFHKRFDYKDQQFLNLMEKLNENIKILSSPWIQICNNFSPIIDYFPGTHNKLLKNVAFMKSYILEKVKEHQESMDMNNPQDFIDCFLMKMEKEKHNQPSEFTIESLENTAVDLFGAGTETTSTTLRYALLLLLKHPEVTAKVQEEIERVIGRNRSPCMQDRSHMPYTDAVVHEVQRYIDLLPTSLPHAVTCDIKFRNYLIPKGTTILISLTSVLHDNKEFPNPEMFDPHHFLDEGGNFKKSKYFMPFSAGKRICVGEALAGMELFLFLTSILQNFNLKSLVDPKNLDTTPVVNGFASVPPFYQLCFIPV

[9] = target: CYP2C19 (Homo sapiens, UniProt P33261); assay: (§3) Inhibition of CYP2C19; type: ADME
[10] = target: CYP2D6 (Homo sapiens, UniProt P10635); assay: (§4) Inhibition of CYP2D6; type: ADME
CYP2D6, sequence (P10635 whole entry): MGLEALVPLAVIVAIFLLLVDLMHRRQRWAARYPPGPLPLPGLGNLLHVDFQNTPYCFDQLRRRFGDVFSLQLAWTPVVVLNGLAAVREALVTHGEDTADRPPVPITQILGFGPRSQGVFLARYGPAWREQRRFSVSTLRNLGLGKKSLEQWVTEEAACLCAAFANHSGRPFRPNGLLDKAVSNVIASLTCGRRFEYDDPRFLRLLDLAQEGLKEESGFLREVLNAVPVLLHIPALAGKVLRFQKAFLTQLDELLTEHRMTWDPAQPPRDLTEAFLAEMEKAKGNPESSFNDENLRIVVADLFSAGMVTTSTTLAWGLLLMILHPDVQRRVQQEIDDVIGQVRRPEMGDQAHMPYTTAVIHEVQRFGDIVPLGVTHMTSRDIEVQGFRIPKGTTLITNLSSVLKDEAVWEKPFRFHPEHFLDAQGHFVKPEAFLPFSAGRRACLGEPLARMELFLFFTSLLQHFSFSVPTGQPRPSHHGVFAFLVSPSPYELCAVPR

[11] = target: CYP3A4 (Homo sapiens, UniProt P08684); assay: (§5) Inhibition of CYP3A4; type: ADME
CYP3A4, sequence (P08684 whole entry): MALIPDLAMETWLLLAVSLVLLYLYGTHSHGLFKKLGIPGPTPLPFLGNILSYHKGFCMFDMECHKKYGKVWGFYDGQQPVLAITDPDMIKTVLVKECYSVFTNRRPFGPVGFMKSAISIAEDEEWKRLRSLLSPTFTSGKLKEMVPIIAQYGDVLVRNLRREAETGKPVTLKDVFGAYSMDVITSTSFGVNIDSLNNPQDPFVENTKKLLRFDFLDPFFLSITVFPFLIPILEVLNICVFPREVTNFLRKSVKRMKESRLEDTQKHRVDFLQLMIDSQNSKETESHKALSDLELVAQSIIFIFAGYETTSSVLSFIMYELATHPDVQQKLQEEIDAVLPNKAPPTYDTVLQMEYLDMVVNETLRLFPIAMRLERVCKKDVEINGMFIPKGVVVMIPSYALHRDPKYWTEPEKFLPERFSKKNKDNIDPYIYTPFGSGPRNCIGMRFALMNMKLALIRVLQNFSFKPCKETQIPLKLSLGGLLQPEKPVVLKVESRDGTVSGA

[12] = target: hERG (KCNH2) (Homo sapiens, UniProt Q12809); assay: Inhibition of human ERG at 10 uM
hERG (KCNH2), sequence (Q12809 whole entry): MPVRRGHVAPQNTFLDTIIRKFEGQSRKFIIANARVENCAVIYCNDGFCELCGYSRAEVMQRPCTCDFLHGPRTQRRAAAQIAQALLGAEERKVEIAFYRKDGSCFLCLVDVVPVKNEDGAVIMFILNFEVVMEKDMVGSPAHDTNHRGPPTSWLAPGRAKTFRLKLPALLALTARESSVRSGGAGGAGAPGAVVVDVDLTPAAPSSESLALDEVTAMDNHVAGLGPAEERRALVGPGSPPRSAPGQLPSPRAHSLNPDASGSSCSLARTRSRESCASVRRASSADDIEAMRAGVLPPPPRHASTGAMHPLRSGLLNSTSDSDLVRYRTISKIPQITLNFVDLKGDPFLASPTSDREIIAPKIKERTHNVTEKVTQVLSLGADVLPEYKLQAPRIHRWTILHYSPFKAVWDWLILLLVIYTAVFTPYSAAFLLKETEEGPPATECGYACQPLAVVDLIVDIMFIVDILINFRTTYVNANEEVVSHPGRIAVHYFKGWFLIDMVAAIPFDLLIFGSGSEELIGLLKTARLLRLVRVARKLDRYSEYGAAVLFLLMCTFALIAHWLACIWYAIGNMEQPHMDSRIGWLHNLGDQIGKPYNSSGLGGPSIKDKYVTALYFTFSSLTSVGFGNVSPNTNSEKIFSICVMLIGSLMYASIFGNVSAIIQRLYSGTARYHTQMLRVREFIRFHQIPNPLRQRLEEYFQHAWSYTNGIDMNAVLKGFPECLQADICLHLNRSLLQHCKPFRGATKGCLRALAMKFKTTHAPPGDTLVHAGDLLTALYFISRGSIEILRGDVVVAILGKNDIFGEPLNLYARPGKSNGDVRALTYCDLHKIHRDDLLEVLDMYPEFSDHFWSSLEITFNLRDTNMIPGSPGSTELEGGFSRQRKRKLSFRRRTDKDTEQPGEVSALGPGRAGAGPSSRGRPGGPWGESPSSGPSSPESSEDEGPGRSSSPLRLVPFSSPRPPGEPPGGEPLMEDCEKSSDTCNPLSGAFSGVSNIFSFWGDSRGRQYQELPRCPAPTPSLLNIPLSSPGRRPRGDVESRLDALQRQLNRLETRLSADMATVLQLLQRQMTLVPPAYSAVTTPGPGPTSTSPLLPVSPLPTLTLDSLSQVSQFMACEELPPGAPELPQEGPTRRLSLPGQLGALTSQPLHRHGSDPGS

[13] = Plasma protein binding in rat; type: ADME, cell-free; settings: read-out: PPB
[14] = Plasma protein binding in human; type: ADME, cell-free; settings: read-out: PPB
[15] = Half life in mouse liver microsomes; type: ADME, Microsome
[16] = Half life in rat liver microsomes; type: ADME, Microsome
[17] = Half life in dog liver microsomes; type: ADME, Canis lupus familiaris, Microsome
[18] = Half life in human liver microsomes; type: ADME, Microsome
[19] = Half life in rat at […], iv; type: ADME, organism-based; settings: in vivo
[20] = Volume of distribution in rat at […], iv; type: ADME, organism-based; settings: in vivo
[21] = Clearance in rat at […], iv; type: ADME, organism-based; settings: in vivo
[22] = AUC in rat at 5 mg/kg, po; type: ADME, organism-based; design: dose 5 mg/kg, route oral; settings: plasma
[23] = Cmax in rat at 5 mg/kg, po; type: ADME, organism-based; design: dose 5 mg/kg, route oral; settings: in vivo
[24] = Ratio of drug level in brain to plasma in rat at 5 mg/kg, po measured after 6 hrs; type: ADME, organism-based; design: dose 5 mg/kg, route oral; settings: read-out: BPR
[25] = Half life in monkey liver microsomes; type: ADME, Macaca mulatta, Microsome; settings: rhesus monkey
[26] = target: Cytochrome P450 2D6 (Homo sapiens, UniProt P10635); assay: as §4; type: ADME
Cytochrome P450 2D6, sequence (P10635 whole entry): as the sequence (P10635 whole entry) above

[27] = Oral bioavailability in rat at 5 mg/kg; type: ADME, organism-based; settings: in vivo
[28] = target: T3, Cytochrome P450 1A2 (Homo sapiens, UniProt P05177); assay: as §1; type: ADME
T3 sequence (P05177 whole entry): T2 sequence (P05177 whole entry)

[29] = target: Cytochrome P450 2C9 (Homo sapiens, UniProt P11712); assay: as §2; type: ADME
Cytochrome P450 2C9, sequence (P11712 whole entry): as the sequence (P11712 whole entry) above

[30] = target: Cytochrome P450 2C19 (Homo sapiens, UniProt P33261); assay: as §3; type: ADME
[31] = target: Cytochrome P450 3A4 (Homo sapiens, UniProt P08684); assay: as §5; type: ADME
Cytochrome P450 3A4, sequence (P08684 whole entry): as the sequence (P08684 whole entry) above

[32] = target: T1, Histamine H3 receptor; assay: Antagonist activity at human histamine H3 receptor assessed as inhibition of [35S]-GTPgammaS binding; type: functional
[33] = target: T1, Histamine H3 receptor; assay: Inverse agonist activity at human histamine H3 receptor by [35S]-GTPgammaS binding assay; type: functional
[34] = tested on: Rattus norvegicus; assay: Inhibition of RAMH-induced dipsogenia in ip dosed rat; type: functional
[35] = tested on: Rattus norvegicus; assay: Wake promoting activity in EEG/EMG Sprague-Dawley rat model at 30 mg/kg, ip measured after 4 hrs relative to vehicle-treated control; type: functional; settings: route intraperitoneal

T1 sequence (Q9Y5N1 whole entry): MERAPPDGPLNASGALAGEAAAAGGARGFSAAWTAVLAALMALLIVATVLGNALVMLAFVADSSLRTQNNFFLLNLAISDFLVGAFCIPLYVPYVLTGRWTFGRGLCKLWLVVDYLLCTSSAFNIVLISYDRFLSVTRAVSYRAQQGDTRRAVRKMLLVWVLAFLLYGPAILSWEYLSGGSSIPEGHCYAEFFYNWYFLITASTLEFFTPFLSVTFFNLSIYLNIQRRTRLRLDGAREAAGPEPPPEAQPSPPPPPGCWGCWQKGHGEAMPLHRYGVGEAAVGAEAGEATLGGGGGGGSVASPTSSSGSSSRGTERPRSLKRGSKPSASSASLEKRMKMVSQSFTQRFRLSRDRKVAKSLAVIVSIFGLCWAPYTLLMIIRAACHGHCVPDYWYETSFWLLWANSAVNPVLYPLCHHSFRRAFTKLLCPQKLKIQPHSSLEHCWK

SMILES: C[C@@H]1CCCN1CCCOc1ccc(C(=O)CN2CCN(C(=O)c3ccc(F)cc3)CC2)cc1
Ki [1]: 0.6 nM
Ki [2]: 5.8 nM

SMILES: C[C@@H]1CCCN1CCCOc1ccc(C(=O)CN2CCN(C(=O)Oc3ccccc3)CC2)cc1
Ki [1]: 3.9 nM
Ki [2]: 6.9 nM

SMILES: C[C@@H]1CCCN1CCCOc1ccc(C(=O)CN2CCN(C(=O)c3ccccc3)CC2)cc1
IC50 [28]: > 30000 nM
IC50 [29]: > 30000 nM
IC50 [30]: > 30000 nM
IC50 [26]: > 30000 nM
IC50 [31]: > 30000 nM
Ki [1]: 1.9 nM
Ki [2]: 14 nM
half-life [15]: > 40 min
half-life [16]: > 40 min
half-life [17]: > 40 min
half-life [18]: > 40 min
half-life [19]: 72 min
Vd [20]: 1.4 L/kg
clearance [21]: 14 mL/min/kg
AUC [22]: 689 ng·h/mL
Cmax [23]: 165 ng/mL
bioavailability [27]: 14%
Kp at 6 h [24]: 1.5
Kb [32]: 0.8 nM
EC50 [33]: 1 nM
ED50 [34]: 0.43 mg/kg
inhibition [34]: Dose-dependent effect
Activity [35]: 33%
half-life [25]: > 40 min

SMILES: C[C@@H]1CCCN1CCCOc1ccc(C(=O)CN2CCN(C(=O)Oc3ccc(F)cc3)CC2)cc1
Ki [1]: 3 nM
Ki [2]: 3.7 nM

More lines, main results first:

inhibition [3]: < 50%
permeability [4]: permeable
inhibition [5]: < 50%
inhibition [6]: < 50%
IC50 [7]: > 30000 nM
IC50 [8]: > 30000 nM
IC50 [9]: > 30000 nM
IC50 [10]: > 30000 nM
IC50 [11]: > 30000 nM
fraction unbound [13]: > 0.8
fraction unbound [14]: > 0.8
half-life [15]: > 40 min
half-life [16]: > 40 min
half-life [17]: > 40 min
half-life [18]: > 40 min
half-life [19]: 138 min
Vd [20]: 27 L/kg
clearance [21]: 126 mL/min/kg
AUC [22]: 81 ng·h/mL
Cmax [23]: 17 ng/mL
Kp at 6 h [24]: 50
half-life [25]: > 40 min
SMILES: C[C@@H]1CCCN1CCCOc1ccc(C(=O)CN2CCOCC2)cc1
inhibition at 10 µM [12]: 21%

Ki [1]: 2.8 nM
Ki [2]: 30 nM
Kp at 6 h [24]: < 0.6
SMILES: CC(=O)N1CCN(CC(=O)c2ccc(OCCCN3CCC[C@H]3C)cc2)CC1

IC50 [26]: 5000 nM
Ki [1]: 4 nM
Ki [2]: 23 nM
half-life [19]: 126 min
Vd [20]: 2.8 L/kg
clearance [21]: 16 mL/min/kg
bioavailability [27]: 33%
Kp at 6 h [24]: 2.4
SMILES: CCOC(=O)N1CCN(CC(=O)c2ccc(OCCCN3CCC[C@H]3C)cc2)CC1

Ki [1]: 9 nM
Ki [2]: 48 nM
SMILES: C[C@@H]1CCCN1CCCOc1ccc(C(=O)CN2CCCC(F)(F)C2)cc1

Ki [1]: 3.4 nM
Ki [2]: 21 nM
SMILES: C[C@@H]1CCCN1CCCOc1ccc(C(=O)CN2CCC(F)(F)C2)cc1

Ki [1]: 2.5 nM
Ki [2]: 9.1 nM
SMILES: C[C@@H]1CCCN1CCCOc1ccc(C(=O)CN2CCC(C(F)(F)F)CC2)cc1
